Here are results for one compound from patent US10799521B2, “Use of icaritin in preparing medicament for preventing or treating hematocytopenia” (Lunan Pharmaceutical Group Corporation, priority 2013, dated 2020).

The subject of the assay is NOD/Ltj mice. Nature of the assay: Effect on the white blood cells and platelets in NOD mice. The format is in vivo. To be noted: 15 days. On the procedure:
Non-obese diabetic (NOD) mice are a large mouse strains, including NOD/Scid, NOD/Ltj mice, etc. The NOD/Ltj mice used in this experiment are mice with an abnormal immune system in which platelets and white blood cells are obviously lower than those in normal mice.
5-Week-old healthy NOD mice, after adaptive feeding for one week, were randomly divided into 4 groups:
Group I was the blank control group, totally 13 mice; and was administered intragastrically with normal saline in the same volume of interleukin daily;
Group II was the positive control group, totally 13 mice, and was administered intragastrically with 10.0 mg/kg of interleukin daily;
Group III was the low-dose icaritin group, totally 13 mice, and was administered intragastrically with 30 mg/kg of icaritin daily;
Group IV was the high-dose icaritin group, totally 13 mice, and was administered intragastrically with 60 mg/kg of icaritin daily.
Each group was administered once a day for consecutively 15 days. The mice were anaesthetized (with 3% pentobarbital sodium, by intraperitoneal injection, at 0.1-0.15 ml per animal). 1 ml of blood wass sampled from abdominal aorta into an anticoagulation tube for routine blood test.

The mark [1] stands for this setting: high dose 60 mg/kg intragastrically daily.
Where [2] appears, read: low dose 30 mg/kg intragastrically daily.

`COc1ccc(-c2oc3c(CC=C(C)C)c(O)cc(O)c3c(=O)c2O)cc1` [Icaritin]: under setting [1], the Platelets is given as 780.2 ± 46.5 ^##$$ 10^9/L and the White blood cells is listed as 4.225 ± 0.51^##$ 10^9/L. Also, under setting [2], the Platelets is 730.5 ± 34.6^##$ 10^9/L and the White blood cells was 3.242 ± 0.45 ^#$ 10^9/L.
